ChEMBL document CHEMBL5257072, “Synthesis of Lathyrol PROTACs and Evaluation of Their Anti-Inflammatory Activities” (J Nat Prod, 2023)
Blank lines part the entries; values can stand above or below the molecule they belong to. Active and inactive are the calls of the source. The calls are words filed in the database; no cut-off is given here.

How the values were obtained:
RAW264.7 [1] = experiment: Anti-inflammatory activity in mouse RAW264.7 cells assessed as inhibition of LPS-induced NO production incubated for 3 hrs followed by LPS addition and measured after 24 hrs; format: functional, cell-based
RAW264.7 [2] = experiment: Cytotoxicity against mouse RAW264.7 cells assessed as reduction in cell viability incubated for 24 hrs by CCK-8 method; format: functional, cell-based; details: RAW264.7, 24 h
RAW264.7 [3] = experiment: Cytotoxicity against mouse RAW264.7 cells assessed as reduction in cell viability at 25 uM incubated for 24 hrs by CCK-8 method; format: functional, cell-based
RAW264.7 [4] = experiment: Induction of autophagy in LPS induced mouse RAW264.7 cells assessed as increase in LC3B-II expression at 5 to 40 uM by Western blot analysis; format: functional, cell-based; details: dose 5-40 µM
[5] = target: Transcription factor MafF (Mus musculus) (UniProt O54791); experiment: Induction of degradation of MAFF in mouse RAW264.7 cells at 20 uM measured after 24 hrs; format: cell-based
Sequence of Transcription factor MafF (Mus musculus) (O54791 whole entry): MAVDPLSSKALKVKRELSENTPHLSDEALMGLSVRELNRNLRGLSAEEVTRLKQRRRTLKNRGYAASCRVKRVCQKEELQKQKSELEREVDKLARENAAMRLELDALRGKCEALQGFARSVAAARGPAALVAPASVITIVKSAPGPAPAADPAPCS

RAW264.7 [6] = experiment: Antiinflammatory activity in LPS induced mouse RAW264.7 cells assessed as upregulation of Nrf2 expression at 5 to 20 uM; format: functional, cell-based; details: dose 5-20 µM
RAW264.7 [7] = experiment: Antiinflammatory activity in LPS induced mouse RAW264.7 cells assessed as reduction in inducible nitric oxide synthase by immunofluorescence analysis; format: functional, cell-based; details: dose 5-20 µM
RAW264.7 [8] = experiment: Antiinflammatory activity in LPS induced mouse RAW264.7 cells assessed as upregulation of heme oxygenase I expression at 5 to 20 uM; format: functional, cell-based; details: dose 5-20 µM
RAW264.7 [9] = experiment: Antiinflammatory activity in LPS induced mouse RAW264.7 cells assessed as inhibition of NF-kappaB phosphorylation at 5 to 20 uM by immunofluorescence analysis; format: functional, cell-based; details: dose 5-20 µM
RAW264.7 [10] = experiment: Antiinflammatory activity in LPS induced mouse RAW264.7 cells assessed as inhibition of […] phosphorylation at 5 to 20 uM by immunofluorescence analysis; format: functional, cell-based; details: dose 5-20 µM
RAW264.7 [11] = experiment: Antiinflammatory activity in LPS induced mouse RAW264.7 cells assessed as inhibition of nuclear translocation of NF-kappaB at 20 uM by immunofluorescence analysis; format: functional, cell-based
RAW264.7 [12] = experiment: Antiinflammatory activity in LPS induced mouse RAW264.7 cells assessed as inhibition of ROS production by DCFH-DA staining based fluorescence assay; format: functional, cell-based; details: dose 5-20 µM
[13] = target: Transcription factor MafF (Mus musculus) (UniProt O54791); experiment: Induction of degradation of MAFF in mouse RAW264.7 cells assessed as reduction in MAFF expression at 20 uM measured after 24 hrs; format: cell-based
RAW264.7 [14] = experiment: Induction of autophagy in LPS induced mouse RAW264.7 cells assessed as increase in p62 expression at 5 to 40 uM by Western blot analysis; format: functional, cell-based; details: dose 5-40 µM
[15] = target: Transcription factor MafF (Mus musculus) (UniProt O54791); experiment: Induction of degradation of MAFF in mouse RAW264.7 cells at 2.5 to 20 uM measured after 24 hrs; format: cell-based; details: dose 2.5-20 µM
[16] = target: Transcription factor MafF (Mus musculus) (UniProt O54791); experiment: Induction of degradation of MAFF in mouse RAW264.7 cells at 20 uM incubated for 24 hrs in presence of MG132 by Western blot analysis; format: cell-based
[17] = target: Transcription factor MafF (Mus musculus) (UniProt O54791); experiment: Induction of degradation of MAFF in mouse RAW264.7 cells at 40 uM measured after 24 hrs; format: cell-based

SMILES: C=C1CC[C@H]2[C@@H](/C=C(\C)C(=O)[C@@]3(O)C[C@H](C)[C@H](O)[C@@H]3[C@H]1OCc1cn(CCCCCC(=O)N[C@H](Cc3ccccc3)[C@H](O)C(=O)N[C@@H](CC(C)C)C(=O)OC)nn1)C2(C)C
IC50 (RAW264.7 [1]): > 20 µM
IC50 (RAW264.7 [2]): > 50 µM

SMILES: C=C1CC[C@H]2[C@@H](/C=C(\C)C(=O)[C@@]3(O)C[C@H](C)[C@H](O)[C@@H]3[C@H]1OCc1cn(CC(=O)N[C@H](C(=O)N3C[C@H](O)C[C@H]3C(=O)NCc3ccc(-c4scnc4C)cc3)C(C)(C)C)nn1)C2(C)C
IC50 (RAW264.7 [1]): > 20 µM
IC50 (RAW264.7 [2]): > 50 µM

SMILES: C=C1CC[C@H]2[C@@H](/C=C(\C)C(=O)[C@@]3(O)C[C@H](C)[C@H](O)[C@@H]3[C@H]1OCc1cn(CCCCCC(=O)N[C@H](C(=O)N3C[C@H](O)C[C@H]3C(=O)NCc3ccc(-c4scnc4C)cc3)C(C)(C)C)nn1)C2(C)C
IC50 (RAW264.7 [1]): > 20 µM
Activity (RAW264.7 [3]): Active

SMILES: C=C1CC[C@H]2[C@@H](/C=C(\C)C(=O)[C@@]3(O)C[C@H](C)[C@H](O)[C@@H]3[C@H]1OCc1cn(CCCC(=O)N[C@H](C(=O)N3C[C@H](O)C[C@H]3C(=O)NCc3ccc(-c4scnc4C)cc3)C(C)(C)C)nn1)C2(C)C
IC50 (RAW264.7 [1]): > 20 µM
IC50 (RAW264.7 [2]): > 50 µM

SMILES: C=C1CC[C@H]2[C@@H](/C=C(\C)C(=O)[C@@]3(O)C[C@H](C)[C@H](O)[C@@H]3[C@H]1OCc1cn(CCOCCOCCNC(=O)[C@H](CC(C)C)NC(=O)[C@@H](O)[C@@H](Cc3ccccc3)NC(=O)OC(C)(C)C)nn1)C2(C)C
Activity (RAW264.7 [4]): Active
Activity [5]: Active
Activity (RAW264.7 [6]): Active
Activity (RAW264.7 [7]): Dose-Dependent Effect
Activity (RAW264.7 [8]): Active
Activity (RAW264.7 [9]): Active
IC50 (RAW264.7 [1]): 5.3 µM
Activity (RAW264.7 [10]): Active
IC50 (RAW264.7 [2]): > 50 µM
Activity (RAW264.7 [11]): Active
Activity (RAW264.7 [12]): Dose-Dependent Effect
Activity [13]: Active
Activity (RAW264.7 [14]): Active
Activity [15]: Active
Activity [16]: inactive
Activity [17]: inactive

SMILES: C=C1CC[C@H]2[C@@H](/C=C(\C)C(=O)[C@@]3(O)C[C@H](C)[C@H](O)[C@@H]3[C@H]1OCc1cn(CCCCCC(=O)N[C@H](C(=O)N3C[C@H](O)C[C@H]3C(=O)N[C@H](C)c3ccc(-c4scnc4C)cc3)C(C)(C)C)nn1)C2(C)C
IC50 (RAW264.7 [1]): > 20 µM
IC50 (RAW264.7 [2]): > 50 µM

SMILES: C=C1CC[C@H]2[C@@H](/C=C(\C)C(=O)[C@@]3(O)C[C@H](C)[C@H](O)[C@@H]3[C@H]1OCc1cn(CC(=O)N[C@H](C(=O)N3C[C@H](O)C[C@H]3C(=O)N[C@H](C)c3ccc(-c4scnc4C)cc3)C(C)(C)C)nn1)C2(C)C
IC50 (RAW264.7 [1]): > 20 µM
IC50 (RAW264.7 [2]): > 50 µM

SMILES: C=C1CC[C@H]2[C@@H](/C=C(\C)C(=O)[C@@]3(O)C[C@H](C)[C@H](O)[C@@H]3[C@H]1OCc1cn(CC(=O)N[C@H](Cc3ccccc3)[C@H](O)C(=O)N[C@@H](CC(C)C)C(=O)OC)nn1)C2(C)C
IC50 (RAW264.7 [1]): > 20 µM
IC50 (RAW264.7 [2]): > 50 µM

SMILES: C=C1CC[C@H]2[C@@H](/C=C(\C)C(=O)[C@@]3(O)C[C@H](C)[C@H](O)[C@@H]3[C@H]1OCc1cn(CCCC(=O)N[C@H](C(=O)N3C[C@H](O)C[C@H]3C(=O)N[C@H](C)c3ccc(-c4scnc4C)cc3)C(C)(C)C)nn1)C2(C)C
IC50 (RAW264.7 [1]): > 20 µM
IC50 (RAW264.7 [2]): > 50 µM

SMILES: C=C1CC[C@H]2[C@@H](/C=C(\C)C(=O)[C@@]3(O)C[C@H](C)[C@H](O)[C@@H]3[C@H]1OCc1cn(CCCC(=O)N[C@H](Cc3ccccc3)[C@H](O)C(=O)N[C@@H](CC(C)C)C(=O)OC)nn1)C2(C)C
IC50 (RAW264.7 [1]): > 20 µM
IC50 (RAW264.7 [2]): > 50 µM

Second part, led by results:

IC50 (RAW264.7 [1]): > 20 µM
SMILES: C=C1CC[C@H]2[C@@H](/C=C(\C)C(=O)[C@@]3(O)C[C@H](C)[C@H](O)[C@@H]3[C@H]1OCc1cn(CCOCCOCCOCCOCCNC(=O)[C@H](CC(C)C)NC(=O)[C@@H](O)[C@@H](Cc3ccccc3)NC(=O)OC(C)(C)C)nn1)C2(C)C
IC50 (RAW264.7 [2]): > 50 µM

IC50 (RAW264.7 [1]): > 20 µM
SMILES: C=C1CC[C@H]2[C@@H](/C=C(\C)C(=O)[C@@]3(O)C[C@H](C)[C@H](O)[C@@H]3[C@H]1OCc1cn(CCOCCOCCNC(=O)CN3CCN(C(=O)N4C(c5ccc(OC)cc5OC(C)C)=N[C@H](c5ccc(Cl)cc5)[C@@H]4c4ccc(Cl)cc4)CC3=O)nn1)C2(C)C
Activity (RAW264.7 [3]): Active

IC50 (RAW264.7 [1]): > 20 µM
SMILES: C=C1CC[C@H]2[C@@H](/C=C(\C)C(=O)[C@@]3(O)C[C@H](C)[C@H](O)[C@@H]3[C@H]1OCc1cn(CCOCCOCCOCCOCCNC(=O)CN3CCN(C(=O)N4C(c5ccc(OC)cc5OC(C)C)=N[C@H](c5ccc(Cl)cc5)[C@@H]4c4ccc(Cl)cc4)CC3=O)nn1)C2(C)C
Activity (RAW264.7 [3]): Active

IC50 (RAW264.7 [1]): > 20 µM
SMILES: C=C1CC[C@H]2[C@@H](/C=C(\C)C(=O)[C@@]3(O)C[C@H](C)[C@H](O)[C@@H]3[C@H]1OCc1cn(CCOCCOCCOCCNC(=O)[C@H](CC(C)C)NC(=O)[C@@H](O)[C@@H](Cc3ccccc3)NC(=O)OC(C)(C)C)nn1)C2(C)C
IC50 (RAW264.7 [2]): > 50 µM

IC50 (RAW264.7 [1]): > 20 µM
SMILES: C=C1CC[C@H]2[C@@H](/C=C(\C)C(=O)[C@@]3(O)C[C@H](C)[C@H](O)[C@@H]3[C@H]1OCc1cn(CCOCCOCCOCCNC(=O)CN3CCN(C(=O)N4C(c5ccc(OC)cc5OC(C)C)=N[C@H](c5ccc(Cl)cc5)[C@@H]4c4ccc(Cl)cc4)CC3=O)nn1)C2(C)C
Activity (RAW264.7 [3]): Active
